Consider four molecules from ChEMBL document CHEMBL5465560, “Selectivity Literature for EUbOPEN Chemogenomic Library” (2024).

Test [1] has as its target Serine/threonine-protein kinase SBK1 (Homo sapiens) (UniProt Q52WX2). Nature of the test: Selectivity interaction (KinomeScan (DiscoverX)) EUB0000595a SBK1. The note with it: at 10 µM.
In test [2] the target is Calcium/calmodulin-dependent protein kinase type 1D (Homo sapiens) (UniProt Q8IU85). Nature of the test: Selectivity interaction (ActivX KiNativ screen (ex vivo kinase selectivity in human PBMCs)) EUB0001619a CAMK1D. Type of test: cell-based. The note with it: PBMC, at 1 µM.
Test [3] concerns the target T1, Discoidin domain-containing receptor 2 (Homo sapiens) (UniProt Q16832).
T1 sequence (whole entry): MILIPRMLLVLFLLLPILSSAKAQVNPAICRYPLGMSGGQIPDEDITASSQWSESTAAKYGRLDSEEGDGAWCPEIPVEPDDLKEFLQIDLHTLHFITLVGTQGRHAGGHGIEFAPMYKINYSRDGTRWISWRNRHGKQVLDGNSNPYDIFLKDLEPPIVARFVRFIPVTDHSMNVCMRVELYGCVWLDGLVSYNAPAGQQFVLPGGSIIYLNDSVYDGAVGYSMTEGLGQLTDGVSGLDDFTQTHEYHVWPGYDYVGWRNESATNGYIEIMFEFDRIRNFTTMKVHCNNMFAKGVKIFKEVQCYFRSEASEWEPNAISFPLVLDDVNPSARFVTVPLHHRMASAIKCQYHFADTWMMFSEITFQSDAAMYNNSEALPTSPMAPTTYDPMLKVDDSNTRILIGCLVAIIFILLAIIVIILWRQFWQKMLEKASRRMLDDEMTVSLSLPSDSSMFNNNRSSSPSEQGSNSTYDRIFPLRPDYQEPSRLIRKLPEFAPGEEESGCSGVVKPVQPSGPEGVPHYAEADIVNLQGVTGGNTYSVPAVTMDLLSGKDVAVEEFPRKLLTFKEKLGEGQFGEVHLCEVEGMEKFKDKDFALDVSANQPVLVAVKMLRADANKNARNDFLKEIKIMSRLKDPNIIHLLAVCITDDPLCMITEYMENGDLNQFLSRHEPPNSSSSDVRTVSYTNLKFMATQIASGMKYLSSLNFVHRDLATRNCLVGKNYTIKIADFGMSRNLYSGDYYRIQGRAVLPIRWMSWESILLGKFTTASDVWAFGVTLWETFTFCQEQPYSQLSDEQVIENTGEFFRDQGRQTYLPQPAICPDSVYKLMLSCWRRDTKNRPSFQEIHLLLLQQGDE
Nature of the test: Selectivity interaction (Kinase panel (Invitrogen)) EUB0000639a DDR2. The note with it: at 200 nM.

Test [4] addresses T2, Inhibitor of nuclear factor kappa-B kinase subunit epsilon (Homo sapiens) (UniProt Q14164).
T2 sequence (whole entry): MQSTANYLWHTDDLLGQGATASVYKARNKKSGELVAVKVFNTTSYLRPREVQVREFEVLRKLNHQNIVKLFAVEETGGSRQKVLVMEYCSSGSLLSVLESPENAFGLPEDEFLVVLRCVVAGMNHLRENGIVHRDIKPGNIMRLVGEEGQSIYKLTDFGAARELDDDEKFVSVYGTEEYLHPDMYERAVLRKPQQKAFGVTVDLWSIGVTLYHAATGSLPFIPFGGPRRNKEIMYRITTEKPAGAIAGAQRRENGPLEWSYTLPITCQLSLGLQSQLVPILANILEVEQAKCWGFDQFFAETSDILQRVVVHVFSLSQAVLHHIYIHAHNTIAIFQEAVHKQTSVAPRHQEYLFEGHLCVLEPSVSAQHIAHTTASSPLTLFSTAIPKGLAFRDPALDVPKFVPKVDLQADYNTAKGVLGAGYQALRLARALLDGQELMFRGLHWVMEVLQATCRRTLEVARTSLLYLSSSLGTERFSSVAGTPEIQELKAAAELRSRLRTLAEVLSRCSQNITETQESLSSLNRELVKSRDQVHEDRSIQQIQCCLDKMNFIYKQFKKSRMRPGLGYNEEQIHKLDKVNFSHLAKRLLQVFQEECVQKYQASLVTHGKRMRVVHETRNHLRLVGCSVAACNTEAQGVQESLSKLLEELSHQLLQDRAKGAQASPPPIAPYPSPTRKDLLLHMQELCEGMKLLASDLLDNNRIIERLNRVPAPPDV
The experiment in a line: Selectivity interaction (ActivX KiNativ screen (kinase selectivity in THP-1 cell lysates)) EUB0000639a IKBKE. As to conditions: lysate, at 0.2 µM. Type of test: subcellular.

Test [5] has as its target T3, Serine/threonine-protein kinase Nek9 (Homo sapiens) (UniProt Q8TD19).
T3 sequence (whole entry): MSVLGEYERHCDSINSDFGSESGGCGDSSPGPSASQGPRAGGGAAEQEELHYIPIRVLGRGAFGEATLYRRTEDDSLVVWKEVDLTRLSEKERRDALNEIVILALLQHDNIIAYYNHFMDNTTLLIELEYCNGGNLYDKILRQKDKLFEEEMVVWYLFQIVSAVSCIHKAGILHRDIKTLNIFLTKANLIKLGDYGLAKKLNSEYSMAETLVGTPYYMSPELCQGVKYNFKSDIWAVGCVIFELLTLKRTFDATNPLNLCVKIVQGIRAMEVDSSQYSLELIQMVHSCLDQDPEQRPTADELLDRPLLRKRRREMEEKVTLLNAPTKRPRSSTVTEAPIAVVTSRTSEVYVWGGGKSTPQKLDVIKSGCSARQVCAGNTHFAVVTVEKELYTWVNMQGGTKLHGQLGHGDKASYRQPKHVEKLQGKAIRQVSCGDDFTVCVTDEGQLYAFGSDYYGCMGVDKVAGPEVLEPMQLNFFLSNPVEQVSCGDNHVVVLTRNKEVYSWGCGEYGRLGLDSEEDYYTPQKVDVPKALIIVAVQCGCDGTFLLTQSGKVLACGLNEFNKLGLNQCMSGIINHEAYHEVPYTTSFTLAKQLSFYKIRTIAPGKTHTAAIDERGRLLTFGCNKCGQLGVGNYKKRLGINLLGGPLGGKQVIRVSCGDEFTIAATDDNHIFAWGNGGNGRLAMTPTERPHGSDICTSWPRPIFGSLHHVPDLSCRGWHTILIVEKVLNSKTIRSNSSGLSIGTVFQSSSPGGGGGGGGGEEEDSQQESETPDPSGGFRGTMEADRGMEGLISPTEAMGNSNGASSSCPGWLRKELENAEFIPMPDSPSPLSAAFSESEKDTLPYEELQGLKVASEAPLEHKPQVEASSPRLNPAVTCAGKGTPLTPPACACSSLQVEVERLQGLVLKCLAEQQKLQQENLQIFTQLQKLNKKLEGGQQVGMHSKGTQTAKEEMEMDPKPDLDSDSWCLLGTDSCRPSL
The experiment in a line: Selectivity interaction (ActivX KiNativ screen (kinase selectivity in THP-1 cell lysates)) EUB0000639a NEK9. Type of test: subcellular. The note with it: lysate, at 0.04 µM.

In test [6] the target is Serine/threonine-protein kinase PRP4 homolog (Homo sapiens) (UniProt Q13523). The experiment in a line: Selectivity interaction (KinomeScan (DiscoverX)) EUB0000618a PRPF4. As to conditions: at 10 µM.
Chain of Serine/threonine-protein kinase PRP4 homolog (Homo sapiens) (Q13523 whole entry): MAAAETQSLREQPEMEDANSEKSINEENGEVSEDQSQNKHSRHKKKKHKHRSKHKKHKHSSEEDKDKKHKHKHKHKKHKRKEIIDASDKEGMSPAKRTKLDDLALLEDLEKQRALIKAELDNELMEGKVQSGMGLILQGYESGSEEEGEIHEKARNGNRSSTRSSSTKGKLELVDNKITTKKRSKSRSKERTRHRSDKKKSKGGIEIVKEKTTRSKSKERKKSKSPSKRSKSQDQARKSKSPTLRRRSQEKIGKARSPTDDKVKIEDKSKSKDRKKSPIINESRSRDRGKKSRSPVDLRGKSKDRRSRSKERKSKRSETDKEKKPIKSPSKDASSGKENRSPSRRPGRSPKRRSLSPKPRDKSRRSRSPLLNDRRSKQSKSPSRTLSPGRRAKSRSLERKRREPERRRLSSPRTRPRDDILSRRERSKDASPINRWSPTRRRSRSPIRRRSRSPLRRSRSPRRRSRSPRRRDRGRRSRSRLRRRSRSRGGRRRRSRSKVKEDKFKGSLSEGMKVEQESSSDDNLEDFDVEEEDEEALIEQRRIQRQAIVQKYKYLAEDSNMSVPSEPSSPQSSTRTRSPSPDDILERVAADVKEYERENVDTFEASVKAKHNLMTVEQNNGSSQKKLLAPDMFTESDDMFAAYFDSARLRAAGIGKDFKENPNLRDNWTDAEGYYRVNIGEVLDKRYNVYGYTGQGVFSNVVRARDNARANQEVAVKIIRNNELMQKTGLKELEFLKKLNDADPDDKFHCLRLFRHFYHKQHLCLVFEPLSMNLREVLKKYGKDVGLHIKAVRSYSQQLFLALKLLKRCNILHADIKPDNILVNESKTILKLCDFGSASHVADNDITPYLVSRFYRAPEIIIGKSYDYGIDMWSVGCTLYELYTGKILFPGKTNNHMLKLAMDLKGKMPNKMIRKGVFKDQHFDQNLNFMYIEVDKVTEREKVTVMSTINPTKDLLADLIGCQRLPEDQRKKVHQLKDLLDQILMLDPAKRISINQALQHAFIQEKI

Chain of Calcium/calmodulin-dependent protein kinase type 1D (Homo sapiens) (Q8IU85 whole entry, looked up, the tested form may be a part): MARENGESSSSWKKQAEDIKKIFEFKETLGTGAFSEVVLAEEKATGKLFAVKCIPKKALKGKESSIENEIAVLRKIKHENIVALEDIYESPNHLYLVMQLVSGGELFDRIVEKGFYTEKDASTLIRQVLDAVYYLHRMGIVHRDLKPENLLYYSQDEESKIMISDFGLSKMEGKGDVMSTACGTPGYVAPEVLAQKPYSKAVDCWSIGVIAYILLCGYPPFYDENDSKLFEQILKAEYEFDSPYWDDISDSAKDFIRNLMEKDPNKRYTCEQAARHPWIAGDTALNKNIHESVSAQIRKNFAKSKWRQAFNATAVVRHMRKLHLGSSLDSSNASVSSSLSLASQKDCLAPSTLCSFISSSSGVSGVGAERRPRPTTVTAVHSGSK
Chain of Serine/threonine-protein kinase SBK1 (Homo sapiens) (Q52WX2 whole entry): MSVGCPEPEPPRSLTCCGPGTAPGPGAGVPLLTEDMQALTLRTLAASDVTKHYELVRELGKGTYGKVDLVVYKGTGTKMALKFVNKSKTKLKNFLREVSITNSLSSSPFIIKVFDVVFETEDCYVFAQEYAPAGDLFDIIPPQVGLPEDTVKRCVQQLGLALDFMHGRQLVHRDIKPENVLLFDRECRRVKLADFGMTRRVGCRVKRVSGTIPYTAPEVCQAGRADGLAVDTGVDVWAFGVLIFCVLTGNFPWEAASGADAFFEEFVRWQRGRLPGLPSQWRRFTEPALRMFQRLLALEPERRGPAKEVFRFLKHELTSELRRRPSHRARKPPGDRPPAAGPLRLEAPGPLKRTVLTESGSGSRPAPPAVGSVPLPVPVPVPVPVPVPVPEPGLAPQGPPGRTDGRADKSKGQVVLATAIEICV

The molecule `COCC(=O)NC/C=C/c1ccc2ncnc(Nc3ccc(Oc4ccc(C)nc4)c(C)c3)c2c1` [CP-724714] displayed a % of control in test [1] of 100%.

`N#Cc1cccc(-c2c[nH]c3ncnc(N4CCOCC4)c23)c1`: in test [2], the % of inhibition came out at 1%. In the case of `CC[C@@H]1[C@H](F)C(=O)N[C@@H]1COc1nccc2cc(C(N)=O)c(OC)cc12` [ZIMLOVISERTIB], the % of inhibition is -2.26% in test [3], -29.9% in test [4] and 5% in test [5].

Regarding `O[C@H]1CC[C@H](Nc2ncc3nc(Nc4c(F)cc(F)cc4F)n([C@H]4CCOC4)c3n2)CC1`, in test [6], the % of control worked out at 100%.
